Measured values taken from patent US20240300913A1, “FLAVONE DERIVATIVE AND USE THEREOF FOR IMPROVING PULMONARY FIBROSIS” (A-CHEMBIO CO., LTD, priority 2023, published 2024).

Columns and labels:
A549 cells [1] = experiment: MTT cytotoxicity evaluation in A549 cells; type: cell-based; conditions: for cell viability: compared to untreated control
Method: To confirm the effect of novel flavone derivative I on cell viability, A549 cells, derived from lung cancer, were used to examine cell viability with MTT [3-(4,5-dimethylthiazol-2-yl)-2,5-diphenyltetrazolium bromide]. After being suspended in a medium, A549 cells were dispensed into a 96-well plate and incubated for 24 hours. After 24 hours, 200 μL of a medium containing 0 to 20 μM BGC was added to each well of the plate and incubated for 24 or 48 hours. After incubation, MTT was diluted (0.5 mg/ml) in phosphate-buffered saline (PBS). Then, 20 μL of the diluted MTT was dispensed into each well, and incubation was performed in a CO2 incubator for 4 hours. After 4 hours, the MTT solution was removed, and 200 μL of dimethyl sulfoxide (DMSO) was dispensed into each well to dissolve the formazan precipitate for 5 minutes. Next, the absorbance was measured at 595 nm.
(§1) Cytotoxicity tests of novel flavone derivative II (Achem II) on A549 cells, HULEC-5a cells, and HLF cells were performed in the same manner as in Example 1 above, using the MTT assay. The results thereof are shown in FIGS. 17 to 19 as cell viability (%) after 24, 48, and 72 hours compared to that of the control group, the untreated sample group.
as §1, with “III” for “II”, “III)” for “II)”, “27” for “17”, “29” for “19”

HULEC-5a cells = experiment: MTT cytotoxicity evaluation in HULEC-5a cells; type: cell-based, human; conditions: incubated for 24, 48, and 72 hours
Method: (§2) To confirm the effect of novel flavone derivative I on cell viability, HULEC-5a, human lung microvascular endothelial cells, were used to examine cell viability with MTT [3-(4,5-dimethylthiazol-2-yl)-2,5-diphenyltetrazolium bromide]. After being suspended in a medium, HULEC-5a cells were dispensed into a 96-well plate and incubated for 24 hours. […] After incubation, all media was removed, and MTT was diluted (0.5 mg/mL) in phosphate-buffered saline (PBS). Then, 200 μL of the diluted MTT was dispensed into each well, and incubation was performed in a CO2 incubator for 4 hours. After 4 hours, the MTT solution was removed, and 160 μL of dimethyl sulfoxide (DMSO) was dispensed into each well to dissolve the formazan precipitate for 30 minutes. Next, the absorbance was measured at 570 nm.
as §1
as §1, with “III” for “II”, “III)” for “II)”, “27” for “17”, “29” for “19”

HLF cells [2] = experiment: MTT cytotoxicity evaluation in HLF cells; type: cell-based, human; conditions: all treatment concentrations up to 10 μM, incubated for 24, 48, and 72 hours, compared to untreated control
Method: as §2, with “viability,” for “viability, HULEC-5a,”, “fibroblasts (HLF)” for “microvascular endothelial cells,”, “HLF” for “HULEC-5a”
as §1
as §1, with “III” for “II”, “III)” for “II)”, “27” for “17”, “29” for “19”

HLF cells [3] = experiment: Effect upon TGF-β1 treatment in HLF cells (western blot of protein levels); type: cell-based, human
Method: After suspending 5×10^6 human lung fibroblast (HLF) cells in a medium, […] dispensed into a 100-mm plate, and incubated for 24 hours. […] After 24 and 48 hours of incubation, the cells were lysed with RIPA lysis buffer ([50 mM Tris]-Cl (pH, 7.4), 1% NP-40, 150 mM NaCl, 1 mM EDTA, and 1 mM phenylmethylsulfonyl fluoride (PMSF)) containing MG-132 (10 μM, proteasome inhibitor, protect the HIF-1α subunit from proteasome degradation). Next, only the supernatant was collected by centrifugation (at 13,000 rpm for 7 minutes) at 4° C., and the proteins were separated by SDS-polyacrylamide gel electrophoresis (SDS-PAGE). The separated proteins were transferred to a polyvinylidene difluoride membrane (PVDF membrane), reacted in 5% nonfat dry milk for 2 hours, and then reacted with primary antibodies at 4° C. overnight. After overnight, the proteins further reacted with secondary antibodies corresponding to the respective primary antibodies. Then, the protein band was examined, according to the manufacturer's protocol, using an ECL kit.
The effect of novel flavone derivative II upon TGF-β1 treatment in HLF cells was evaluated in the same manner as in Example 1 above.
The effect of novel flavone derivative III upon TGF-β1 treatment in HLF cells was evaluated in the same manner as in Example 1 above.

A549 cells [4] = experiment: Effect upon EGF treatment in A549 cells (western blot of protein levels); type: cell-based; conditions: 1 hour
Method: A549 cells, derived from lung cancer, were incubated at different cell numbers depending on the sample treatment time. 4.5×10^5 cells (30 minutes to 12 hours), 4.0×10^5 cells (24 hours), and 3.5×10^5 cells (48 hours) were suspended in the respective media, dispensed into a 60-mm plate, and incubated for 24 hours. After 24 hours, each plate was treated with EGF (2 ng/ml) alone or in combination with novel flavone derivative I at varying concentrations or a predetermined concentration. After a predetermined period (30 minutes to 48 hours) of incubation, the cells were lysed with RIPA lysis buffer ([50 mM Tris]-Cl (pH, 7.4), 1% NP-40, 150 mM NaCl, 1 mM EDTA, and 1 mM, phenylmethylsulfonyl fluoride (PMSF)) containing MG-132 (10 μM). Next, only the supernatant was collected by centrifugation (at 14,000 rpm for 10 minutes) at 4° C., and the proteins were separated by SDS-polyacrylamide gel electrophoresis (SDS-PAGE). […]
FIGS. 11 and 12 show the results thereof. […] Thus, the degree to which pulmonary fibrosis-related factors, whose expression levels were increased in A549 cells by EGF treatment, were inhibited by the treatment with novel flavone derivative I was evaluated.
The effect of novel flavone derivative II upon EGF treatment in A549 cells was evaluated in the same manner as in Example 1 above.

| SMILES | cytotoxicity (A549 cells [1]; treatment concentration of 5 μM, incubated for 24 hours, MTT) | cell viability (A549 cells [1]; treatment concentration of 5 μM, incubated for 48 hours) | cytotoxicity (HULEC-5a cells; treatment concentrations of up to 5 μM, MTT) | cell viability (HLF cells [2]) [%] | levels of fibrosis-related factors (fibronectin, COL4, α-SMA, and HIF-1α), increased by TGF-β1 treatment (HLF cells [3]; 5 ng/mL TGF-β1 and 1 and 3 μM compound, 24 hours, FIG. 10) | levels of fibrosis-related factors (p-EGFR, EGFR, p-AKT, HIF-1α, and NOX2), increased by EGF treatment (A549 cells [4]; 2 ng/mL EGF and compound at 1, 3, and 5 or 2 μM, FIGS. 11 and 12) | cell viability (A549 cells [1]; all treatment concentrations, incubated for 24 and 48 hours) [%] | cell viability (A549 cells [1]; concentrations of 3 μM or higher, incubated for 72 hours) [%] | cell viability (HULEC-5a cells; all treatment concentrations up to 10 μM, compared to untreated control) [%] | levels of fibronectin, α-SMA, HIF-1α, and COL1, increased by TGF-β1 treatment (HLF cells [3]; TGF-β1 treatment, FIG. 23) | level of NOX2, a fibrosis-related factor increased by EGF treatment (A549 cells [4]; 2 ng/mL EGF and compound, FIG. 24) |
| --- | --- | --- | --- | --- | --- | --- | --- | --- | --- | --- | --- |
| COc1ccc(-c2c(-c3ccc(O)c(O)c3)oc3cc(OC)c(OC)cc3c2=O)cc1 [novel flavone derivative I, 2-(3,4-dihydroxyphenyl)-6,7-dimethoxy-3-(4-methoxyphenyl)-4H-chromen-4-one] | No cytotoxicity was observed | about 80% | No cytotoxicity was observed | ≥ 80 | decreased | decreased | – | – | – | – | – |
| COc1ccc(-c2c(-c3ccc(O)c(OC)c3)oc3cc(OC)c(OC)cc3c2=O)cc1 [novel flavone derivative II, 2-(4-hydroxy-3-methoxyphenyl)-6,7-dimethoxy-3-(4-methoxyphenyl)-4H-chromen-4-one] | – | – | – | ≥ 80 | – | – | ≥ 80 | ≤ 80 | ≥ 80 | decreased | decreased |
